# From publication PMC10035947, “Development of novel anilinoquinazoline-based carboxylic acids as non-classical carbonic anhydrase IX and XII inhibitors” (Journal of Enzyme Inhibition and Medicinal Chemistry, 2023)
# Legend:
# [1] = molecular target: T1, hCA II (Homo sapiens, UniProt P00918); assay: stopped flow CO2 hydrase assay; format: biochemical; details: mean from 3 assays
# T1 construct: made in house
# Protocol: Carbonic anhydrase inhibition assay
# The carbonic anhydrase catalyzed CO2 hydration actions for the quinazoline-based carboxylic acid derivatives (6a-c, 7a-c and 8a-c) were assayed utilizing an instrument of Applied Photophysics stopped-flow, as described previously. The enzymes are recombinant proteins prepared in our lab. Phenol red (at a concentration of 0.2 mM) has been used as indicator, working at the absorbance maximum of 557 nm, with 20 mM Hepes (pH 7.5) as buffer, and 20 mM Na2SO4 (for maintaining constant the ionic strength), following the initial rates of the CA- […]
# 1.7 to 17 mM for the determination of the kinetic parameters and inhibition constants. For each inhibitor at least six traces of the initial 5-10% of the reaction have been used for determining the initial velocity. The uncatalyzed rates were determined in the same manner and subtracted from the total observed rates. Stock solutions of inhibitor (0.1 mM) were prepared in distilled-deionized water and dilutions up to 0.01 nM were done thereafter with the assay buffer. Inhibitor and enzyme solutions were preincubated together for 15 min at room temperature prior to assay, in order to allow for the formation of the E-I complex. The inhibition constants were obtained by non-linear least-squares methods using PRISM 3 and the Cheng-Prusoff equation, and represent the mean from at least three different determinations.
# [2] = tested on: HL-60(TB); assay: NCI SRB assay; format: cell-based, human; details: HL-60(TB); for GI%: 10 μM; for Growth Percent: 1.00E-5 Molar
# [3] = tested on: MOLT-4; assay: NCI SRB assay; format: cell-based, human; details: for GI%: MOLT-4, 10 μM; for Growth Percent: MOLT-4, 1.00E-5 Molar
# [4] = tested on: EKVX; assay: NCI SRB assay; format: cell-based, human; details: for GI%: 10 μM; for Growth Percent: 1.00E-5 Molar
# [5] = tested on: HOP-92; assay: NCI SRB assay; format: cell-based, human; details: for GI%: HOP-92, 10 μM; for Growth Percent: HOP-92, 1.00E-5 Molar
# [6] = tested on: NCI-H226; assay: NCI SRB assay; format: cell-based, human; details: for GI%: NCI-H226, 10 μM; for Growth Percent: NCI-H226, 1.00E-5 Molar
# [7] = tested on: NCI-H322M; assay: NCI SRB assay; format: cell-based, human; details: for GI%: 10 μM; for Growth Percent: 1.00E-5 Molar
# [8] = tested on: NCI-H460; assay: NCI SRB assay; format: cell-based, human; details: for GI%: NCI-H460, 10 μM; for Growth Percent: NCI-H460, 1.00E-5 Molar
# [9] = tested on: COLO 205; assay: NCI SRB assay; format: cell-based, human; details: for GI%: COLO 205, 10 μM; for Growth Percent: COLO 205, 1.00E-5 Molar
# [10] = tested on: HCT-116; assay: NCI SRB assay; format: cell-based, human; details: for GI%: HCT-116, 10 μM; for Growth Percent: HCT-116, 1.00E-5 Molar
# [11] = tested on: KM12; assay: NCI SRB assay; format: cell-based, human; details: for GI%: KM12, 10 μM; for Growth Percent: KM12, 1.00E-5 Molar
# [12] = tested on: SW-620; assay: NCI SRB assay; format: cell-based, human; details: for GI%: SW-620, 10 μM; for Growth Percent: SW-620, 1.00E-5 Molar
# [13] = tested on: SF-295; assay: NCI SRB assay; format: cell-based, human; details: for GI%: SF-295, 10 μM; for Growth Percent: SF-295, 1.00E-5 Molar
# [14] = tested on: SNB-19; assay: NCI SRB assay; format: cell-based, human; details: for GI%: SNB-19, 10 μM; for Growth Percent: SNB-19, 1.00E-5 Molar
# [15] = tested on: SNB-75; assay: NCI SRB assay; format: cell-based, human; details: for GI%: SNB-75, 10 μM; for Growth Percent: SNB-75, 1.00E-5 Molar
# [16] = tested on: LOX IMVI; assay: NCI SRB assay; format: cell-based, human; details: for GI%: 10 μM; for Growth Percent: 1.00E-5 Molar
# [17] = tested on: SK-MEL-2; assay: NCI SRB assay; format: cell-based, human; details: for GI%: SK-MEL-2, 10 μM; for Growth Percent: SK-MEL-2, 1.00E-5 Molar
# [18] = tested on: UACC-62; assay: NCI SRB assay; format: cell-based, human; details: for GI%: UACC-62, 10 μM; for Growth Percent: UACC-62, 1.00E-5 Molar
# [19] = tested on: NCI/ADR-RES; assay: NCI SRB assay; format: cell-based, human; details: for GI%: 10 μM; for Growth Percent: 1.00E-5 Molar
# [20] = tested on: SK-OV-3; assay: NCI SRB assay; format: cell-based, human; details: for GI%: SK-OV-3, 10 μM; for Growth Percent: SK-OV-3, 1.00E-5 Molar
# [21] = tested on: CAKI-1; assay: NCI SRB assay; format: cell-based, human; details: for GI%: CAKI-1, 10 μM; for Growth Percent: CAKI-1, 1.00E-5 Molar
# [22] = tested on: SN12C; assay: NCI SRB assay; format: cell-based, human; details: SN12C; for GI%: 10 μM; for Growth Percent: 1.00E-5 Molar
# [23] = tested on: TK-10; assay: NCI SRB assay; format: cell-based, human; details: for GI%: TK-10, 10 μM; for Growth Percent: TK-10, 1.00E-5 Molar
# [24] = tested on: PC-3; assay: NCI SRB assay; format: cell-based, human; details: for GI%: PC-3, 10 μM; for Growth Percent: PC-3, 1.00E-5 Molar
# [25] = tested on: MDA-MB-468; assay: NCI SRB assay; format: cell-based, human; details: for GI%: MDA-MB-468, 10 μM; for Growth Percent: MDA-MB-468, 1.00E-5 Molar
# [26] = tested on: 59 human cancer cell lines representing nine tumour subpanels; assay: NCI SRB assay, panel and subpanel summaries; details: all cell lines; for Mean GI %: 10 μM; for Mean Growth Percent: 1.00E-5 Molar
smiles,measurement,setting,value
"Cc1cccc(-c2nc(Nc3ccccc3C(=O)O)c3ccccc3n2)c1 [6a, 2-((2-(m-Tolyl)quinazolin-4-yl)amino)benzoic acid]",Ki,[1],85.2 µM
same,GI%,[2],60%
same,Growth Percent,[2],39.37%
same,GI%,[3],65%
same,Growth Percent,[3],34.28%
same,GI%,[4],79%
same,Growth Percent,[4],20.98%
same,GI%,[5],105%
same,Growth Percent,[5],-5.02%
same,GI%,[6],64%
same,Growth Percent,[6],36.13%
same,GI%,[7],52%
same,Growth Percent,[7],48.74%
same,GI%,[8],81%
same,Growth Percent,[8],19.15%
same,GI%,[9],– (Only GI% higher than 20% are shown)
same,Growth Percent,[9],120.57%
same,GI%,[10],78%
same,Growth Percent,[10],22.67%
same,GI%,[11],70%
same,Growth Percent,[11],29.97%
same,GI%,[12],65%
same,Growth Percent,[12],35.45%
same,GI%,[13],73%
same,Growth Percent,[13],27.07%
same,GI%,[14],79%
same,Growth Percent,[14],21.25%
same,GI%,[15],45%
same,Growth Percent,[15],55.27%
same,GI%,[16],64%
same,Growth Percent,[16],36.42%
same,GI%,[17],34%
same,Growth Percent,[17],66.01%
same,GI%,[18],72%
same,Growth Percent,[18],28.00%
same,GI%,[19],75%
same,Growth Percent,[19],24.78%
same,GI%,[20],24%
same,Growth Percent,[20],76.74%
same,GI%,[21],48%
same,Growth Percent,[21],52.39%
same,GI%,[22],59%
same,Growth Percent,[22],40.74%
same,GI%,[23],– (Only GI% higher than 20% are shown)
same,Growth Percent,[23],85.85%
same,GI%,[24],71%
same,Growth Percent,[24],29.47%
same,GI%,[25],115%
same,Growth Percent,[25],-15.06%
same,Mean GI %,[26],63%
same,Mean Growth Percent,[26],37.30%
"Cc1ccc(-c2nc(Nc3cccc(C(=O)O)c3)c3ccccc3n2)cc1 [7b, 3-((2-(p-Tolyl)quinazolin-4-yl)amino)benzoic acid]",Ki,[1],41.7 µM
same,GI%,[2],– (Only GI% higher than 20% are shown)
same,Growth Percent,[2],85.11%
same,GI%,[3],– (Only GI% higher than 20% are shown)
same,Growth Percent,[3],89.24%
same,GI%,[4],41%
same,Growth Percent,[4],58.70%
same,GI%,[5],29%
same,Growth Percent,[5],71.46%
same,GI%,[6],25%
same,Growth Percent,[6],75.32%
same,GI%,[7],– (Only GI% higher than 20% are shown)
same,Growth Percent,[7],99.74%
same,GI%,[8],– (Only GI% higher than 20% are shown)
same,Growth Percent,[8],97.53%
same,GI%,[9],– (Only GI% higher than 20% are shown)
same,Growth Percent,[9],124.60%
same,GI%,[10],26%
same,Growth Percent,[10],74.42%
same,GI%,[11],32%
same,Growth Percent,[11],68.03%
same,GI%,[12],– (Only GI% higher than 20% are shown)
same,Growth Percent,[12],94.08%
same,GI%,[13],34%
same,Growth Percent,[13],65.90%
same,GI%,[14],28%
same,Growth Percent,[14],71.76%
same,GI%,[15],– (Only GI% higher than 20% are shown)
same,Growth Percent,[15],91.06%
same,GI%,[16],– (Only GI% higher than 20% are shown)
same,Growth Percent,[16],81.15%
same,GI%,[17],– (Only GI% higher than 20% are shown)
same,Growth Percent,[17],112.04%
same,GI%,[18],– (Only GI% higher than 20% are shown)
same,Growth Percent,[18],87.74%
same,GI%,[19],– (Only GI% higher than 20% are shown)
same,Growth Percent,[19],89.49%
same,GI%,[20],– (Only GI% higher than 20% are shown)
same,Growth Percent,[20],89.56%
same,GI%,[21],– (Only GI% higher than 20% are shown)
same,Growth Percent,[21],82.90%
same,GI%,[22],23%
same,Growth Percent,[22],76.64%
same,GI%,[23],– (Only GI% higher than 20% are shown)
same,Growth Percent,[23],115.15%
same,GI%,[24],– (Only GI% higher than 20% are shown)
same,Growth Percent,[24],80.52%
same,GI%,[25],– (Only GI% higher than 20% are shown)
same,Growth Percent,[25],116.40%
same,Mean GI %,[26],14%
same,Mean Growth Percent,[26],86.13%
